One substance from patent publication US8211445B2, “PSM peptides as vaccine targets against methicillin-resistant Staphylococcus” (The United States of America, as represented by the …, priority 2007, dated 2012) can be followed below.

The subject of test [1] is human neutrophils. Put plainly: Priming of human neutrophils (surface expression of CD11b and gp91phox). The note with it: PSM-mec vs PSMα3; in the range of other α-type PSMs and δ-toxin, higher than β-type PSMs. It counts as cell-based. The method, then: (§1) Priming of PMNs by synthetic PSMs was determined by increased surface expression of CD11b and gp91phox (granule exocytosis). PMNs were incubated with 10-10,000 ng/ml PSM, 10 μM fMLP, 10 ng/ml lipopolysaccharide, or 10 μg/ml lipoteichoic acid in 96-well tissue culture plates at 37° C. with rotation for 60 minutes. The assay was terminated by centrifuging cells at 4° C. for 8 minutes at 350×g. Cells were washed twice in cold Dulbecco's phosphate-buffered saline and stained with and isotype control antibody (BD Biosciences) or those specific for CD11b (mAb 44, BD Biosciences) or gp91phox (mAb 7D533). Propidium iodide (0.5 μg/ml) was used to identify dead cells. PMNs were analyzed on a FACSCalibur flow cytometer (Becton Dickinson) and dead cells were excluded with a single gate. Percent positive neutrophils were determined with a marker defined by the boundary of the isotype-matched control antibody.
as §1, with “10-10000” for “10-10,000”, “7D5).” for “7D533).”
Human neutrophil assays: Human neutrophil isolation, chemotaxis, calcium ion flux, priming, lysis assays, and measurement of IL-8 production were performed as described in Example 2.

The test system of test [2] is human neutrophils. Put plainly: Scanning electron microscopy of neutrophils exposed to PSMα3. It counts as cell-based. The note with it: PSMα3 10 μg/ml. The method, then: FIG. 4 includes several panels showing PSM-induced lysis of human neutrophils. FIG. 4A is a graph showing human neutrophil lysis, measured by release of lactate dehydrogenase (LDH) activity, with synthetic PSM peptides at 10 μg/ml. FIG. 4B is a graph showing human neutrophil lysis, measured by release of LDH activity, with culture filtrates of wild-type, PSM gene deletion and complemented CA- and HA-MRSA strains. Data represent means±SEM of at least three independent measurements. FIG. 4C is a series of digital images showing in vitro lysis of human neutrophils with synthetic PSMα3. Neutrophils were incubated with PSMα3 (10 μg/ml) and observed by scanning electron microscopy at the time intervals indicated, in comparison to untreated controls. […] The peak at ˜190 nm is indicative of α-helicity. […] FIG. 4F is a pair of graphs showing the infiltration and killing of […] leukocytes in a murine peritonitis model. Two hours after infection with the bacteria, neutrophils and monocytes were counted in peritoneal exudates, and dead and live cells were distinguished, using flow cytometry. The number of mice was n=5 for all samples except n=4 for MW2 samples (the results from one mouse in the MW2 wild-type and PSMα deletion strain samples were not included because of extensive bleeding). […]

Test [3] in a line: Immunization of mice with synthetic PSM peptides, PSM-specific antibodies by ELISA. It counts as in vivo, mice (BALB/c). To be noted: 50 μg s.c. with CFA, booster with IFA. The method, then:
In order to determine the immunogenicity of synthetic PSM peptides, mice (BALB/c, female, 6-8 weeks) were injected subcutaneously with 50 μg (100 μL) of each PSM peptide in sterile PBS emulsified with complete Freund's adjuvant (CFA) for primary immunization. A booster injection containing incomplete Freund's adjuvant (IFA) instead of CFA was given to the animals 14 days after the primary immunization. The control group of animals received injections of sterile PBS and adjuvants only. Three blood withdrawals were performed on each mouse. The first two blood samples were collected via retro-orbital route immediately before primary injection and before booster injection, respectively. All animals were sacrificed 21 days after booster injection for the terminal blood samples.
PSM-specific antibodies in mouse serum were determined by ELISA assays. Microtiter plates (Nunc 96-well flat-bottom MaxiSorp plates) were coated with 20 μg/ml of each synthetic PSM peptides in PBS plus 0.05% NaN3, and incubated overnight at 4° C. The plates were washed with PBS containing 0.05% Tween-20, and blocked for 1 hour at room temperature with 1% BSA (Sigma) and 0.05% NaN3 in PBS. Serum samples were diluted in assay diluent (Tris-buffered saline containing 0.1% BSA and 0.05% Tween-20, pH 7.2), and added to the washed wells at 100 μl/well for an incubation of 2 hours at room temperature. Plates were washed again and HRP-labeled goat anti-mouse IgG (R&D Systems) and goat anti-mouse IgM (Jackson ImmunoResearch Laboratory) were diluted in assay diluent and added to the plates at 100 μl/well for an incubation of 1 hour at room temperature in order to detect PSM specific mouse IgG and IgM, respectively. Plates were washed again and a substrate solution containing equal volume of Tetramethylbenzidine and H2O2 was added to the plates at 100 μl/well for color development. The reaction was terminated by adding 50 μl of 1 M H2SO4 to each well, and optical density (O.D.) was measured at 450 nm using an ELISA plate reader.
A general note: An ELISA detects its analyte on a solid surface through an enzyme-linked reagent.

For the substance fMEFVAKLFKFFKDLLGKFLGNN [PSMα3], the “capacity to activate human neutrophils (surface exposure of gp91phox and CD11b)” value with human neutrophils [1] was “most potent”. Besides, in the test with human neutrophils [2], the “state of neutrophils after 60 minutes” value is on record as “many neutrophils were completely destroyed”; the “time of exposure until signs of priming and compromised integrity of the plasma membrane” value is at most 5 min. In addition, in test [3] (N-formylated synthetic PSM peptides, BALB/c mice (FIG. 11)), the “specific antibody production in vivo” value is “most robust antibody production”. Also, the “specific antibody production in vivo” value in test [3] (non N-formylated synthetic PSM peptides, BALB/c mice (FIG. 12)) was “strongest response”.
